# Measured values reported in US20250115600A1, “COVALENT MODIFIERS OF AKT1 AND USES THEREOF” (Terremoto Biosciences, Inc., priority 2022, published 2025).
# pIC50: −log10 of the molar value.
# Experiments:
# AKT1 E17K mutant protein = AKT1 E17K mutant protein (Homo sapiens (Human), UniProt P31749, E17K); experiment: Intact mass spectrometry, covalent complex formation and ARQ-092 competition; assay type: binding; settings: for covalent complex formation with AKT1 E17K mutant protein / covalent complex formation with AKT1 E17K mutant protein in presence of competitor: protein 1 μM, compound 1.5 μM, 2 hrs at 37° C., NaBH4 reduction; for covalent complex formation with AKT1 E17K mutant protein: absence of competitor; for covalent complex formation with AKT1 E17K mutant protein in presence of competitor: with ARQ092 (50 μM)
# AKT1 E17K mutant protein, sequence (P31749 2-480 E17K): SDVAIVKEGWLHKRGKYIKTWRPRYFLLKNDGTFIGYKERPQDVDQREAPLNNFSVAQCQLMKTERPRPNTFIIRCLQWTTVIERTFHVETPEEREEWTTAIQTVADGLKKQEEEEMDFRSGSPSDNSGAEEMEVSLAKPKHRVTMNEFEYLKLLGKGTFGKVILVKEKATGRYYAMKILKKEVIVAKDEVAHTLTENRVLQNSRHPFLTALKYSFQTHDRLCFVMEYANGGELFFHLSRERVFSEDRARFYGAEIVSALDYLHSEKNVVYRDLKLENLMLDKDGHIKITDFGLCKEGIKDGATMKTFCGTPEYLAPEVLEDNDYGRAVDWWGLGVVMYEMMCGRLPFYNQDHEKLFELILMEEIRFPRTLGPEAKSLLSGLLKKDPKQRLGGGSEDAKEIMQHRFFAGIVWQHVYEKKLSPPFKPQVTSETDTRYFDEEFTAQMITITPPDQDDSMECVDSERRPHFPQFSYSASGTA
# Method: (§1) AKT1 WT or AKT1 E17K (1 μM) was treated with a compound from Table 1 (1.5 μM) for 2 hrs at 37° C., with and without ARQ092 (50 μM) competitor as a specificity control. Reversible imines were captured by reductive amination with 5 mM NaBH4 for 5 min. Reduction reactions were quenched by diluting the sample in equal volume acetonitrile+1% TFA, then analyzed by LCMS.
# (§2) FIGS. 1 to 25 provide intact mass spectra for AKT1 WT protein and AKT1 E17K mutant protein after incubation with compounds of the present disclosure and subsequent borohydride reduction. […] Further, FIGS. 1 to 10, 12, and 14 to 25 each provide intact mass spectra following the incubation of an AKT1 protein with a compound of the present disclosure both in the absence of a competitor molecule (i.e., ARQ-092, a molecule known to bind to and inhibit the function of AKT1); and in the presence of a significant stoichiometric excess of a competitor molecule.
# AKT1 WT [1] = target: T1, AKT1 WT (Homo sapiens (Human), UniProt P31749); experiment: as above; assay type: binding; settings: protein 1 μM, compound 1.5 μM, 2 hrs at 37° C., NaBH4 reduction; for covalent complex formation with AKT1 WT protein: absence of competitor; for covalent complex formation with AKT1 WT protein in presence of competitor: with ARQ092 (50 μM)
# Method: as §1, §2
# Target sequence in this assay (P31749 2-480): as the sequence (P31749 2-480 E17K) above, with K16E counted along it
# AKT1 E17K = AKT1 E17K (Homo sapiens (Human), UniProt P31749, E17K); experiment: Live cell target engagement (NanoBRET) in HEK293 cells; assay type: cell-based; settings: for pIC50: HEK293, 2 hours at 37° C.
# AKT1 E17K, sequence (P31749 whole entry E17K): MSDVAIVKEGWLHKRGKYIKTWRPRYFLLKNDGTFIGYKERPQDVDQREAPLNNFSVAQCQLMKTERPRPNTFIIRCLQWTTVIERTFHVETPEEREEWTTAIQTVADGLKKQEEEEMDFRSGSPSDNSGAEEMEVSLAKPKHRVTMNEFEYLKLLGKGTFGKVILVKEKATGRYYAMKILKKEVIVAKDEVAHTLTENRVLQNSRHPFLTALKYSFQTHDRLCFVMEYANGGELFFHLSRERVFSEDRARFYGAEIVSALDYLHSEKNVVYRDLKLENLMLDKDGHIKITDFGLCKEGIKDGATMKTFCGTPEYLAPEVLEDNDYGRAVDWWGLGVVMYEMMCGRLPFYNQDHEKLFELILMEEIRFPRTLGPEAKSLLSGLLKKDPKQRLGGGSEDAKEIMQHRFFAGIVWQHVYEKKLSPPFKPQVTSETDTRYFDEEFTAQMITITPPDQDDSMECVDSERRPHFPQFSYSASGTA
# AKT1 WT [2] = target: T1, AKT1 WT; experiment: as above; assay type: cell-based; settings: HEK293, 2 hours at 37° C.
# Target sequence in this assay (P31749 whole entry): as the sequence (P31749 whole entry E17K) above, with K17E counted along it
# AKT2 = AKT2 (Homo sapiens (Human), UniProt P31751); experiment: as above; assay type: cell-based; settings: HEK293, 2 hours at 37° C.
# AKT2, sequence (P31751 whole entry): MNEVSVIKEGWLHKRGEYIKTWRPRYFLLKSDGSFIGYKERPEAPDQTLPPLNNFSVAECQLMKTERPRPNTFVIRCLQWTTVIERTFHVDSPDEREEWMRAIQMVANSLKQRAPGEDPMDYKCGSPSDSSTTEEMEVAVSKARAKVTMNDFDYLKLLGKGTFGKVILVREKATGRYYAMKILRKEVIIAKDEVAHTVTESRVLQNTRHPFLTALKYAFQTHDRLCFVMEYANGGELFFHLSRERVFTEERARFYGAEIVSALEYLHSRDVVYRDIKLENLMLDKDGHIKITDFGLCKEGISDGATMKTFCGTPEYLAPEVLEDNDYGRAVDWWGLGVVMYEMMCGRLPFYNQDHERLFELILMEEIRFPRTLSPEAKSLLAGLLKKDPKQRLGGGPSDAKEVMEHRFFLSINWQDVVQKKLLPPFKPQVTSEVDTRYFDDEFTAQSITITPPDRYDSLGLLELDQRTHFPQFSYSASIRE
Structure (SMILES),covalent complex formation with AKT1 E17K mutant protein (AKT1 E17K mutant protein),covalent complex formation with AKT1 E17K mutant protein in presence of competitor (AKT1 E17K mutant protein),covalent complex formation with AKT1 WT protein (AKT1 WT [1]),covalent complex formation with AKT1 WT protein in presence of competitor (AKT1 WT [1]),AKT1 E17K IC50: Selectivity vs AKT1 WT (AKT1 E17K),AKT1 E17K IC50: Selectivity vs AKT2 (AKT1 E17K),pIC50 (AKT1 E17K),pIC50 (AKT1 WT [2]),pIC50 (AKT2),"selectivity of complex formation, AKT1 E17K versus AKT1 WT (AKT1 E17K mutant protein; comparison of the spectra without competitor)"
"Nc1ncccc1-c1nc2ccc(N3CCOCC3)nc2n1-c1ccc(CNCCc2ccc(C=O)c(O)c2)cc1 [Compound 107, 4-(2-((4-(2-(2-aminopyridin-3-yl)-5-morpholino-3H-imidazo[4,5-b]pyridin-3-yl)benzyl)amino)ethyl)-2-hydroxybenzaldehyde]",only peaks corresponding to unmodified mutant protein,only peaks corresponding to unmodified mutant protein,only peaks corresponding to unmodified WT protein,only peaks corresponding to unmodified WT protein,3.5,76,> 7.00,6.30 to 7.00,< 6.30,
"Nc1ncccc1-c1nc2ccc(-c3ccccc3)nc2n1-c1ccc(CNCCc2ccc(C=O)c(O)c2F)cc1 [Compound 122, 4-{2-[({4-[2-(2-aminopyridin-3-yl)-5-phenylimidazo[4,5-b]pyridin-3-yl]phenyl}methyl)amino]ethyl}-3-fluoro-2-hydroxybenzaldehyde]",presence of covalent complex,Essentially no covalent complex formation,presence of covalent complex,Essentially no covalent complex formation,1.3,3.2,> 7.00,> 7.00,> 7.00,
"Nc1ncccc1-c1nc2ccc(-c3ccccc3)nc2n1-c1ccc(CCNCc2ccc(C=O)c(O)c2)cc1 [Compound 72, 4-{[(2-{4-[2-(2-aminopyridin-3-yl)-5-phenylimidazo[4,5-b]pyridin-3-yl]phenyl}ethyl)amino]methyl}-2-hydroxybenzaldehyde]",significant presence of a covalent complex,significantly smaller level of covalent complex formation,significant presence of a covalent complex,Essentially no covalent complex formation,1.7,18,> 7.00,> 7.00,> 7.00,
"Nc1ncccc1-c1nc2ccc(-n3cccn3)nc2n1-c1ccc(C2(NC(=O)Cc3ccc(C=O)c(O)c3F)CC2)cc1 [Compound 141, N-(1-{4-[2-(2-aminopyridin-3-yl)-5-(pyrazol-1-yl)imidazo[4,5-b]pyridin-3-yl]phenyl}cyclopropyl)-2-(2-fluoro-4-formyl-3-hydroxyphenyl)acetamide]",significant presence of a covalent complex,Essentially no covalent complex formation,presence of a covalent complex,Essentially no covalent complex formation,1.2,4.4,> 7.00,> 7.00,> 7.00,selective for complex formation with AKT1 E17K
"Nc1ncccc1-c1nc2ccc(-c3ccccc3)nc2n1-c1ccc(CC(=O)NCc2ccc(C=O)c(O)c2)cc1 [Compound 58, 2-{4-[2-(2-aminopyridin-3-yl)-5-phenylimidazo[4,5-b]pyridin-3-yl]phenyl}-N-[(4-formyl-3-hydroxyphenyl)methyl]acetamide]",significant presence of a covalent complex,Essentially no covalent complex formation,presence of a covalent complex,Essentially no covalent complex formation,8.6,410,> 7.00,> 7.00,< 6.30,
